Results: US20230146096A1, “USE OF VIDOFLUDIMUS FOR THE TREATMENT OF CORONAVIRUS INFECTIONS” (INSERM (Institut National de la Santé et de la Recherche …, priority 2020, published 2023)
Like-named read-outs stand apart in the source and are kept apart here.

Test system: SARS-CoV-2 strain BavPat1
Assay: Determination of EC50 and EC90: inhibition of SARS-CoV-2 viral RNA replication in Vero E6 cells (RT-qPCR)
Assay type: cell-based
Conditions: for EC50: Severe acute respiratory syndrome coronavirus 2, Vero C1008, 48 h, read-out: EC50 (compound concentration required to inhibit viral RNA replication by 50%)

**Q.** How did the EC50 (Vero E6 cells, MOI 0.002, 2 days at 37° C., viral RNA in supernatant, logarithmic interpolation) turn out when COc1cccc(-c2ccc(NC(=O)C3=C(C(=O)O)CCC3)c(F)c2)c1 [Vidofludimus, 2-[[2-fluoro-4-(3-methoxyphenyl)phenyl]carbamoyl]cyclopentene-1-carboxylic acid] was run?
**A.** 23.1 µM

**Q.** What about the “effect on replication of SARS-CoV-2” value (Vero E6 cells, two days of culture) of the same compound?
**A.** can repress the replication of SARS-CoV-2 in a significant manner

**Q.** How did the EC50 turn out when CCC(CC)COC(=O)[C@H](C)N[P@](=O)(OC[C@H]1O[C@@](C#N)(c2ccc3c(N)ncnn23)[C@H](O)[C@@H]1O)Oc1ccccc1 [remdesivir] was run?
**A.** 6.65 µM
